Measurements reported in patent US4898887A, “Compounds and compositions having anti-inflammatory and analgesic activity” (The Procter & Gamble Company, priority 1986, dated 1990).
Like-named read-outs stand apart in the source and are kept apart here.

How the values were obtained:
[1] = system: threshold for the perception of pain (hot plate, 55° C.); details: unless administered in toxic quantities; cited from earlier work
[2] = system: analgesia and inflammation; test: topical administration to human: analgesia and inflammation; format: in vivo; details: Example VI, 0.4 ml to 80 cm^2 of forearm of 60 kg human
Experimental: The octadecatrienamide is melted to a liquid with slight warming and combined with the other ingredients.
A composition for topical application of N-vanillyl-5Z,8Z,11Z,14Z-eicosatetraenamide is prepared by a substantially similar method.

[3] = toxicity and narcotic side effects (general statement); format: in vivo
[4] = system: analgesia and inflammation; test: intramuscular administration to human: analgesia and inflammation; format: in vivo; details: Example III, ethyl oleate/benzyl alcohol, 1.5 ml in 65 kg human
Experimental: The octadecatrienamide is dissolved in the solution combining ethyl oleate and benzyl alcohol, sealed into airtight 5 ml ampoules, and sterilized by autoclaving.
A composition for parenteral administration of N-vanillyl-5Z,8Z,11Z,14Z-eicosatetraenamide is prepared by a substantially similar method.

[5] = system: analgesia and inflammation; test: oral administration to human: analgesia and inflammation; format: in vivo
Experimental: A composition for oral administration of N-vanillyl-5Z,8Z,11Z,14Z-eicosatetraenamide is prepared by a substantially similar method.

[6] = system: phenylbenzoquinone-induced writhing; test: phenylquinone writhing assay; format: in vivo, mouse (male mice); details: oral gavage 3 h before i.p. 0.2% phenylbenzoquinone; 10 minute period; vehicle control 17.4 ± 1.7
Experimental: Three trienamide composition were tested for analgesic and anti-inflammatory activity using the phenylquinone writhing assay.
Groups of eight male mice weighing between approximately 25 and 30 g were dosed orally by gavage with the composition to be tested. Identical groups of mice were dosed with control compositions. Three hours after this initial administration, the mice were injected intraperitoneally with a 0.2% solution of phenylbenzoquinone in aqueous ethanol. The ability of the analgesic compositions tested to relieve the discomfort induced was measured by counting the number of abdominal contractions, or "writhes", occurring in each mouse during a 10 minute period beginning 10 minutes after injection of the phenylbenzoquinone solution.

[7] = system: analgesia and inflammation; test: analgesic and anti-inflammatory activity (general statement); format: in vivo
[8] = system: croton oil-induced mouse ear inflammation; test: croton oil-induced mouse ear inflammation test; format: in vivo, mouse (adult male Cox ICR mice); details: 25 μl of 1% ethanolic solution on left ear, 20-28 h and 5-6 h prior to sacrifice; 2% croton oil 4 h prior to sacrifice
Experimental: Two trienamide compositions were tested for anti-inflammatory activity using the croton oil-induced mouse ear inflammation test.
Adult male Cox ICR mice, 20-30 g, were treated on the left ear at 20-28 hours prior to sacrifice and a second time 5-6 hours prior to sacrifice with 25 μl of a 1% ethanolic solution of the test compound. Four hours prior to sacrifice both ears were treated with 25 μl of a 2% solution of croton oil in acetone. Each animal was then placed in individual cages and given food and water ad lib. Animals were sacrificed by cervical dislocation and both ears removed. From these ears, 0.38 cm^2 punch biopsies were taken from the central portion and each biopsy weighed on a Cahn electrobalance.
For each test substance, a group of 10 animals was used. Control groups either had both ears treated with croton oil or just the right ear. It was experimentally determined that a value of 11.0 mg could be assumed for a punch biopsy from a normal untreated ear and still be within the experimental error of the test. Therefore, for the calculation of percent inhibition, a value of 11.0 mg was used. [formula]
This calculation is valid only when no systemic effects are noted as evidenced by comparison of right ears of treated and control groups.
Statistical signifance at the 95% confidence level was determined by the paired test.

[9] = system: threshold for the perception of pain (hot plate, 55° C.); test: Rodent Hot Plate Test (rats, VL)
[10] = system: analgesia and inflammation; details: background, literature on capsaicin; cited from earlier work
[11] = Example IV, sesame oil soft gelatin capsules, two capsules of 225 mg in 60 kg human
[12] = Example V, syrup, one teaspoon in 70 kg adult human

SMILES: CC(=O)Oc1ccccc1C(=O)O [aspirin]
- activity in the RHP system [1]: little or no activity

SMILES: CC/C=C\C/C=C\C/C=C\CCCCCCCCCC(=O)NCc1ccc(O)c(OC)c1 [N-vanillyl-11Z,14Z,17Z-eicosatrienamide]
- reduction of inflammation [2]: substantially similar reduction of inflammation
- undesirable narcotic side effects (tolerance, physical dependence) [3]: does not exhibit undesirable narcotic side effects
- reduction of inflammation [4]: substantially similar reduction of inflammation
- reduction of inflammation [5, 11]: substantially similar reduction of inflammation
- reduction of inflammation [5, 12]: substantially similar reduction of inflammation
- Writhes/10 minutes [6]: 0.4 ± 0.3 Writhes/10 minutes
- analgesic activity / potency compared with aspirin and opioids [7]: analgesic activity comparable to that of the opioids

SMILES: CC/C=C\C/C=C\C/C=C\CCCCCCCC(=O)NCc1ccc(O)c(OC)c1 [N-vanillyl-9Z,12Z,15Z-octadecatrienamide]
- analgesia [2]: produces analgesia
- reduction of inflammation [2]: reduces inflammation
- % Inhibition [8]: 78.5 ± 31.9%
- analgesia [4]: produces analgesia
- reduction of inflammation [4]: reduces inflammation
- % Animals Analgesic ([9]; Example X, 20 mg/kg oral in sesame oil, 1 hr post-dose, vehicle 0): 70%
- % Animals Analgesic ([9]; Example X, 20 mg/kg oral in sesame oil, 2 hrs post-dose, vehicle 20): 30%
- % Animals Analgesic ([9]; Example X, 20 mg/kg oral in sesame oil, 3 hrs post-dose, vehicle 0): 10%
- % Animals Analgesic ([9]; Experiment A, 200 mg/kg oral in propylene glycol, 1 hr post-dose, vehicle 20): 80%
- % Animals Analgesic ([9]; Experiment A, 200 mg/kg oral in propylene glycol, 2 hrs post-dose, vehicle 10): 40%
- % Animals Analgesic ([9]; Experiment A, 200 mg/kg oral in propylene glycol, 3 hrs post-dose, vehicle 0): 30%
- % Animals Analgesic ([9]; Experiment B, 200 mg/kg oral in propylene glycol, 1 hr post-dose, vehicle 0): 50%
- % Animals Analgesic ([9]; Experiment B, 200 mg/kg oral in propylene glycol, 2 hrs post-dose, vehicle 20): 60%
- % Animals Analgesic ([9]; Experiment B, 200 mg/kg oral in propylene glycol, 3 hrs post-dose, vehicle 0): 20%
- % Animals Analgesic ([9]; Experiment C, 288 mg/kg oral in propylene glycol, 1 hr post-dose, vehicle 10): 50%
- % Animals Analgesic ([9]; Experiment C, 288 mg/kg oral in propylene glycol, 2 hrs post-dose, vehicle 0): 10%
- % Animals Analgesic ([9]; Experiment C, 288 mg/kg oral in propylene glycol, 3 hrs post-dose, vehicle 0): 0%
- analgesia [5, 11]: producing analgesia
- reduction of inflammation [5, 11]: reducing inflammation
- analgesia [5, 12]: producing analgesia
- reduction of inflammation [5, 12]: reducing inflammation
- Writhes/10 minutes [6]: 0.4 ± 0.3 Writhes/10 minutes

SMILES: CCCCC/C=C\C/C=C\C/C=C\C/C=C\CCCC(=O)NCc1ccc(O)c(OC)c1 [N-vanillyl-5Z,8Z,11Z,14Z-eicosatetraenamide]
- analgesia [2]: produces analgesia
- reduction of inflammation [2]: reduces inflammation
- analgesia [4]: produces analgesia
- reduction of inflammation [4]: reduces inflammation
- analgesia [5, 11]: produces analgesia
- reduction of inflammation [5, 11]: reduces inflammation
- analgesia [5, 12]: produces analgesia
- reduction of inflammation [5, 12]: reduces inflammation

SMILES: CCCCC/C=C\C/C=C\C/C=C\CCCCC(=O)NCc1ccc(O)c(OC)c1 [N-vanillyl-6Z,9Z,12Z-octadecatrienamide]
- reduction of inflammation [2]: substantially similar reduction of inflammation
- % Inhibition [8]: 100.7 ± 11.9%
- reduction of inflammation [4]: substantially similar reduction of inflammation
- reduction of inflammation [5, 11]: substantially similar reduction of inflammation
- reduction of inflammation [5, 12]: substantially similar reduction of inflammation
- Writhes/10 minutes [6]: 0.0 ± 0.0 Writhes/10 minutes

SMILES: CC(=O)Nc1ccc(O)cc1 [acetaminophen]
- activity in the RHP system [1]: little or no activity

SMILES: COc1cc(CNC(=O)CCCCC=CC(C)C)ccc1O [capsaicin, 8-methyl-N-vanillyl-6-nonenamide]
- analgesia [10]: induces analgesia
